Test results as given in article PMC5760633, “Determining direct binders of the Androgen Receptor using a high-throughput Cellular Thermal Shift Assay” (Scientific Reports, 2018).
Changes are numbered by the printed parent chain. pEC50, pIC50: −log10 of the molar value. Like-named read-outs stand apart in the source and are kept apart here.

Columns and labels:
[1] = system: AR-driven transcription (ARE-Luciferase); assay: AR-driven transcription ARE Luciferase reporter assay in CWR22Pc-R1-AD1 cells; type: cell-based, human;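 note: cells stably carrying an ARE-driven firefly luciferase reporter, with luminescence as read-out, tested in phenol red free RPMI containing 10% charcoal stripped FBS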
Procedure: 15 µL 2x Steady-Glo® reagent (Promega) was added per well and incubated 15 min in the dark before reading luminescence using an EnVision platereader. Experiments were performed in phenol red free RPMI media supplemented with 10% charcoal stripped FBS.

Androgen Receptor (AR) [2] = target: T1, Androgen Receptor (AR) (Homo sapiens, UniProt P10275, H875Y); assay: CETSA HT ITDRF at 46 °C, antagonist mode in the presence of 1 nM DHT, CWR22Pc-R1-AD1 cells; type: binding; settings: for pIC50: AR target engagement (CETSA HT), IC50, CWR22Pc-R1-AD1 cells; for pIC50 / AR target engagement (CETSA HT), 2 h, IC50 / IC50: 1 nM DHT; for pIC50 / AR target engagement (CETSA HT), 2 h, IC50: 46 °C heat shock; for AR target engagement (CETSA HT), 2 h, IC50: CWR22Pc-R1-AD1 cells; for IC50: one technical repeat, read-out: CETSA HT response pIC50 (converted)
T1 construct: exclusively expresses a structurally full-length AR containing a H874Y mutation; endogenous in cells; host or cells: CWR22Pc-R1-AD1
T1 sequence (P10275 1-920 H875Y): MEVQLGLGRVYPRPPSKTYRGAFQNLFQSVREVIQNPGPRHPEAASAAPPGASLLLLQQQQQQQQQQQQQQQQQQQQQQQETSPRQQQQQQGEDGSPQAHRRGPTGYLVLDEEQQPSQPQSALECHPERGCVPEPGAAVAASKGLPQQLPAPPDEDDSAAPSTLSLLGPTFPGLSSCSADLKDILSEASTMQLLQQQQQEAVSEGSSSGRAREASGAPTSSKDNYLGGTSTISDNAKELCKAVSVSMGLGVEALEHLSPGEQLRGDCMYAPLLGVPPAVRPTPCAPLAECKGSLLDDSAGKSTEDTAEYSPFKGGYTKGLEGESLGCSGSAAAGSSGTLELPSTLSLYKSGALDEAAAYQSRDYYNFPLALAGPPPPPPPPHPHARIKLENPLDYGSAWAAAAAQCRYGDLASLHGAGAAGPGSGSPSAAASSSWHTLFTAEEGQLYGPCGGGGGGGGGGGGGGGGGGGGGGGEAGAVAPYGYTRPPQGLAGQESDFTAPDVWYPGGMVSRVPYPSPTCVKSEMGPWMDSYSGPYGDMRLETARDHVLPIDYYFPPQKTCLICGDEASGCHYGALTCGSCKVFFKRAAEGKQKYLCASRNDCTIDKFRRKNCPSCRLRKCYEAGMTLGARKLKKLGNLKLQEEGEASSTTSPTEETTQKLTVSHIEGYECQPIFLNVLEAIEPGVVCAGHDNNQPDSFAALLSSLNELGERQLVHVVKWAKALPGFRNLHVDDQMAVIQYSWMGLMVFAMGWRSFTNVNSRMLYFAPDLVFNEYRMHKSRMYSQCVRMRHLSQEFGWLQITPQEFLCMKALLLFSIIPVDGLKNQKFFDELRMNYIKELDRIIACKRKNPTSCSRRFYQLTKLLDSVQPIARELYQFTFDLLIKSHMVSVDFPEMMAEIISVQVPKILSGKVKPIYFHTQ
Procedure: [sequence] experiments were performed in a plate-based, automation-compatible assay setup, as described in Supplementary Fig. S2e. […] Internal standard controls were included on each plate (Supplementary Fig. S10). […] 10 µL of cells were seeded per well of the PCR plate using a Multidrop Combi dispensor, covered with a plate lid, briefly centrifuged, and incubated under standard tissue culture conditions for 2 h or indicated timepoint. […] Cells were lysed by addition of 10 µL/well 2x SureFire Lysis Buffer using a Multidrop Combi. […] Antibody and AlphaScreen reagent, prepared as above, were added by Multidrop Combi (6 µL/well). Plates were incubated in the dark 16 h and analysed using an EnVision platereader.

Androgen Receptor (AR) [3] = target: T1, Androgen Receptor (AR); assay: CETSA HT ITDRF at 46 °C, agonist mode (no exogenous DHT), CWR22Pc-R1-AD1 cells; type: binding; settings: for compound incubation time at which AR thermal stabilisation is seen: time-course
Androgen Receptor (AR) [4] = target: T2, Androgen Receptor (AR) (Homo sapiens, UniProt P10275, T878A); assay: CETSA HT ITDRF at 46 °C, agonist mode, LNCaP cells; type: binding; settings: read-out: EC50 for AR thermal stabilisation (ITDRF CETSA), LNCaP cells, agonist alone
T2 construct: an alternative AR-positive prostate cancer cell line, LNCaP; endogenous in cells; host or cells: LNCaP
T2 sequence (P10275 1-920 T878A): T1 sequence (P10275 1-920 H875Y) with Y875H, T878A

total cellular AR = assay: CETSA HT control without heat shock and without exogenous DHT (total AR); type: cell-based, human
[5] = CWR22Pc-R1-AD1 cells, 1 nM DHT, 24 h; read-out: AR-driven transcription (ARE-Luciferase), 24 h, IC50
[6] = Supplementary Table S1; 24 h, 1 nM DHT
[7] = Supplementary Table S1, 2 h, 46 °C
[8] = Homo sapiens, 24 h; read-out: AR-driven transcription (ARE-Luciferase), 24 h, IC50
[9] = Homo sapiens, 24 h; read-out: ARE-Luciferase response pIC50 (converted)
[10] = 2 h compound incubation, no exogenous DHT, no 46 °C heat shock

Structure (SMILES)	Conclusion: activity in ARE-Luciferase assay [1, 6]	pIC50 (Androgen Receptor (AR) [2]; 2 h)	Conclusion: activity in CETSA HT (Androgen Receptor (AR) [2]; [7])	pIC50 [1, 8]	IC50 [1, 9]	further results
CN(C)[C@H]1CN(C2CCc3cccc(F)c32)C[C@@H]1c1ccc(N2CCN(S(C)(=O)=O)CC2)cc1 (stereo partly drawn) [A-395]	Inactive	–	–	–	–	pIC50 [1, 5]: < 4.52
COc1ccc(/C=C/C(=O)/C=C(O)/C=C/c2ccc(OC)c(OC)c2)cc1OC [ACS-J9]	Active	–	–	–	–	pIC50 [1, 5]: < 5.00
C[C@]12CC[C@H](O)CC1=CC[C@@H]1[C@@H]2CC[C@]2(C)C(c3cccnc3)=CC[C@@H]12 [Abiraterone]	Inactive	< 4.52	Inactive	< 4.52	–	–
C[C@]12CCC(=O)C=C1CC[C@@H]1[C@@H]2C(=O)C[C@]2(C)C(=O)CC[C@@H]12 [Andrenosterone]	–	–	–	–	–	pEC50 (Androgen Receptor (AR) [3]; agonist alone, read-out: EC50 for in-cell AR target engagement (ITDRF CETSA)): 7.30; compound incubation time at which AR thermal stabilisation is seen (Androgen Receptor (AR) [3]): at least 30 minutes; compound incubation time at which AR thermal stabilisation is seen (Androgen Receptor (AR) [3]; listed as andrenosterone): 30 min; pEC50 (Androgen Receptor (AR) [4]): 7.15
CO[C@@H](C(=O)N1Cc2n[nH]c(NC(=O)c3ccc(N4CCN(C)CC4)cc3)c2C1)c1ccccc1 [Danusertib]	Active	< 4.52	Inactive	5.59	2.57 µM	–
CS(=O)(=O)c1ccc(-c2cnc(NCc3ccco3)n3cnnc23)cc1 [EED-226]	Inactive	< 4.52	Inactive	< 4.52	–	–
CCN(c1cc(-c2ccc(CN3CCOCC3)cc2)cc(C(=O)NCc2c(C)cc(C)[nH]c2=O)c1C)C1CCOCC1 [EPZ-6438]	Inactive	< 4.52	Inactive	–	–	–
CN1CCN(c2ccc(C(=O)Nc3n[nH]c4ccc(Cc5cc(F)cc(F)c5)cc34)c(NC3CCOCC3)c2)CC1 [Entrectinib]	Active	< 4.52	Inactive	4.95	11.2 µM	effect on total AR (no heat shock) (total cellular AR; [10]): do not reduce total AR
CO[C@H]1CNC[C@@H](OCC2CCC(F)(F)CC2)[C@@H]1Nc1ncc(-c2cncc(C)c2)c2cc(C)c(=O)[nH]c12 [GSK8814]	Inactive	< 4.52	Inactive	< 4.52	–	–
O=C(O)c1ccc(CN2CCC(CN[C@@H]3C[C@H]3c3ccccc3)CC2)cc1 [GSK2879522]	Inactive	–	–	–	–	pIC50 [1, 5]: < 4.52
CC[C@H](C)n1cc(C)c2c(C(=O)NCc3c(C)cc(C)[nH]c3=O)cc(-c3ccc(N4CCNCC4)nc3)cc21 [GSK-126]	Inactive	–	–	–	–	pIC50 [1, 5]: < 4.52
Cc1sc2c(c1C)C(c1ccc(Cl)cc1)=N[C@@H](CC(=O)OC(C)(C)C)c1nnc(C)n1-2 [JQ1]	Partial	–	–	–	–	pIC50 [1, 5]: 6.52
C[C@](O)(COc1ccc(C#N)cc1)C(=O)Nc1ccc(C#N)c(C(F)(F)F)c1 [MK-2866]	–	–	–	–	–	Conclusion: activity in CETSA HT (Androgen Receptor (AR) [2]): Active; temporal analysis of target engagement (competition of DHT) (Androgen Receptor (AR) [2]): increasing competition of DHT from AR over time; effect on total AR (no heat shock) (total cellular AR): do not reduce total AR; pIC50 ([1]; Homo sapiens, 24 h, read-out: AR-driven transcription (ARE-Luciferase), 24 h, IC50): 6.77; IC50 ([1]; Homo sapiens, 24 h, read-out: ARE-Luciferase response pIC50 (converted)): 0.17 µM
CCNC(=O)c1noc(-c2cc(C(C)C)c(O)cc2O)c1-c1ccc(CN2CCOCC2)cc1 [NVP-AUY-922]	Active	–	Active	7.05	0.0891 µM	AR target engagement (CETSA HT), 2 h, IC50 (Androgen Receptor (AR) [2]; 2 h): Reduces total AR; IC50 (Androgen Receptor (AR) [2]; [7]): 0.955 µM; effect on total AR (no heat shock) (total cellular AR; [10]): reduces total AR
O=C(Nc1ccc([N+](=O)[O-])cc1Cl)c1cc(Cl)ccc1O [Niclosamide]	Active	–	–	6.02	0.955 µM	–
Cc1sc2c(c1C)C(c1ccc(Cl)cc1)=N[C@@H](CC(=O)Nc1ccc(O)cc1)c1nnc(C)n1-2 [OTX-015]	Partial	< 4.52	Inactive	6.67	0.214 µM	–
CC(C)c1cc(C(=O)N2Cc3ccc(CN4CCN(C)CC4)cc3C2)c(O)cc1O [Onalespib]	Active	–	Active	6.27	0.537 µM	AR target engagement (CETSA HT), 2 h, IC50 (Androgen Receptor (AR) [2]; 2 h): Reduces total AR; IC50 (Androgen Receptor (AR) [2]; [7]): 1.05 µM; effect on total AR (no heat shock) (total cellular AR; [10]): reduces total AR
C=CCNC1=C2C[C@@H](C)C[C@H](OC)[C@H](O)[C@@H](C)/C=C(\C)[C@H](OC(N)=O)[C@@H](OC)/C=C\C=C(/C)C(=O)NC(=CC1=O)C2=O [Tanespimycin]	Active	–	–	5.49	3.24 µM	–
Cc1cc(-c2ncc(CC(=O)Nc3ccc(-c4cnccn4)cn3)cc2C)ccn1 [WNT-974]	Inactive	< 4.52	Inactive	< 4.52	–	–
Oc1nc(-c2ccc(C(F)(F)F)cc2)nc2c1CSCC2 [XAV-939]	Inactive	< 4.52	Inactive	< 4.52	–	–
